Structures are written as SMILES.

Consider 25 compounds from US20120202794A1 (priority 2011, published 2012).

The subject of one data set is HCV Replicon 1b. Briefly: HCV inhibition assay, HCV replicon 1b (Clone A or ET-lunet cells; RT-PCR or luciferase reporter). Format: cell-based. Conditions: Hepatitis C virus, 96 h, HCV replicon 1b; 4 days incubation; read-out: Replicon 1b potency EC90. The method in brief:
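Inhibition read either as luciferase signal (ET replicon) or as HCV 5′-NTR RNA by RT-PCR relative to rRNA, % = (1−2^−ΔΔCt)×100, against DMSO controls, giving EC50 and EC90. Cells: Clone A or ET-lunet, seeded 1500 or 3000/well, exposed 4 days at 37 °C, 5% CO2, 0.5% DMSO.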
On the technique in general: Replicon systems follow genome replication, usually without infectious particles.

Data set [1] in a line: Cell cytotoxicity assay (MTS), CC90 as reported in Table 1, cell line not stated. It counts as cell-based. Conditions: human, cell line not given. The method in brief:
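MTS read-out (490 nm, 2 h dye step) after 8-day exposure at 37° C. Huh7, HepG2, BxPC3 were seeded at 2×10^3 and CEM at 5×10^3 cells/well, with compound serially diluted from 100 μM. CC90 comes from comparison with untreated control wells.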

As a reminder, the EC90 is the concentration at which the effect reaches the 90% level. Consider `CC(C)C[C@H]1C(=O)N[C@@H](c2ccc(Cl)cc2)CN1C(=O)c1cc(-c2ccc(F)cc2)on1` [Compound 358, (3S,6S)-6-(4-chlorophenyl)-4-(5-(4-fluorophenyl)isoxazole-3-carbonyl)-3-isobutyl-piperazin-2-one], for which the EC90 in the data set on HCV Replicon 1b turned out to be 1.53 µM. This compound also registered a CC90 at 8 days in data set [1] (MTS assay, 8 days incubation) above 10 µM.
On the same counts, the results for `CC(C)C[C@H]1CN(C(=O)/C=C/c2ccc(Cl)cc2Cl)[C@@H](CC(C)C)C(=O)N1` [Compound 267, (3S,6S)-4-[3-(2,4-dichloro-phenyl)-acryloyl]-3,6-diisobutyl-piperazin-2-one] are 6.89 µM and above 10 µM.
The corresponding values for `CC(C)C[C@H]1C(=O)N[C@@H](c2ccccc2)CN1C(=O)c1noc2c1CCc1cc(F)ccc1-2` [Compound 306, (3S,6S)-4-(7-fluoro-4,5-dihydronaphtho[2,1-d]isoxazole-3-carbonyl)-3-isobutyl-6-phenylpiperazin-2-one] are 0.89 µM and above 10 µM.
Turning to `CC(C)C[C@H]1CN(Cc2cc(C(F)(F)F)cc(C(F)(F)F)c2)[C@@H](CC(C)C)C(=O)N1` [Compound 223, (3S,6S)-4-(3,5-Bis-trifluoromethyl-benzyl)-3,6-diisobutyl-piperazin-2-one], the EC90 in the data set on HCV Replicon 1b is 4.49 µM. The compound further registered a CC90 at 8 days in data set [1] above 10 µM.
As to `CC(C)C[C@H]1CN(Cc2cc(C(F)(F)F)ccc2Cl)[C@@H](CC(C)C)C(=O)N1` [Compound 229, (3S,6S)-4-(2-Chloro-5-trifluoromethyl-benzyl)-3,6-diisobutyl-piperazin-2-one], the EC90 in the data set with HCV Replicon 1b turned out to be 5.12 µM. Also, the CC90 at 8 days in data set [1] was above 10 µM.
For the compound `CC(C)C[C@H]1C(=O)N[C@@H](C2CCCC2)CN1C(=O)c1cc(-c2ccc(F)cc2F)on1` [Compound 157], the EC90 in the data set on HCV Replicon 1b was 0.49 µM. The compound also came in with a CC90 at 8 days in data set [1] above 10 µM.
The corresponding values for `CC(C)C[C@H]1CN(C(=O)c2cc(-c3ccc(F)cc3)on2)[C@@H](CC(C)C)C(=O)N1` [Compound 124] are 0.11 µM and above 10 µM.
The corresponding values for `Cc1ccc(/C=C/C(=O)N2C[C@H](CC(C)C)NC(=O)[C@@H]2CC(C)C)cc1` [Compound 79] are 5.29 µM and above 10 µM.
On to `CC(C)C[C@H]1CN(C(=O)/C=C/c2ccc(C(C)(C)C)cc2)[C@@H](CC(C)C)C(=O)N1` [Compound 269, (3S,6S)-3,6-diisobutyl-4-((E)-3-(4-tert-butyl-phenyl)acryloyl)piperazin-2-one], for which the EC90 in the data set with HCV Replicon 1b is 8.9 µM. Besides, in data set [1] (MTS assay, 8 days incubation), the CC90 at 8 days was above 10 µM.
As to `CC(C)C[C@H]1C(=O)N[C@@H](C2CCCCC2)CN1Cc1cc(-c2ccc(Cl)cc2)on1` [Compound 211, (3S,6S)-4-((5-(4-chlorophenyl)isoxazol-3-yl)methyl)-6-cyclohexyl-3-isobutylpiperazin-2-one], the EC90 with HCV Replicon 1b stood at 0.41 µM. The CC90 at 8 days in data set [1] is above 10 µM.
`CC(C)C[C@H]1CN(C(=O)c2cc3c(s2)-c2cc(F)ccc2OC3)[C@@H](CC(C)C)C(=O)N1` [Compound 308, (3S,6S)-4-(8-fluoro-4H-thieno[3,2-c]chromene-2-carbonyl)-3,6-diisobutylpiperazin-2-one]: in the data set with HCV Replicon 1b, the EC90 turned out to be 6.48 µM. In addition, in data set [1] (MTS assay, 8 days incubation), the CC90 at 8 days is above 10 µM.
In the case of `CC(C)C[C@H]1C(=O)N[C@@H](C2CCCC2)CN1C(=O)c1cc(-c2ccc(C#N)cc2)on1` [Compound 137], the EC90 in the data set with HCV Replicon 1b came to 0.8 µM. In addition, in data set [1], the CC90 at 8 days is above 10 µM.
The corresponding values for `CCC[C@H]1CN(Cc2cc(-c3ccc(Cl)cc3)on2)[C@@H](CC(C)C)C(=O)N1` [Compound 210, (3S,6S)-4-((5-(4-chlorophenyl)isoxazol-3-yl)methyl)-3-isobutyl-6-propylpiperazin-2-one] are 0.32 µM and above 10 µM.
On the same counts, the results for `CC(C)C[C@H]1CN(C(=O)[C@@H]2C[C@H]2c2ccc(F)cc2F)[C@@H](CC(C)C)C(=O)N1` [Compound 256, (3S,6S)-4-[(1R,2R)-2-(2,4-Difluoro-phenyl)-cyclopropanecarbonyl]-3,6-diisobutyl-piperazin-2-one] are 0.22 µM and above 10 µM.
On to `CC(C)C[C@H]1CN(C(=O)C#Cc2ccccc2)[C@@H](CC(C)C)C(=O)N1` [Compound 114], for which the EC90 in the data set with HCV Replicon 1b amounted to 4.08 µM. The same compound had a CC90 at 8 days in data set [1] above 10 µM.
Regarding `CC(C)C[C@H]1C(=O)N[C@@H](c2ccccc2)CN1Cc1cc(-c2ccc(F)cc2)on1` [Compound 215, (3S,6S)-4-((5-(4-fluorophenyl)isoxazol-3-yl)methyl)-3-isobutyl-6-phenylpiperazin-2-one], the EC90 with HCV Replicon 1b amounted to 0.19 µM. In data set [1], this compound yielded a CC90 at 8 days above 10 µM.
Regarding `CC(C)C[C@H]1C(=O)N[C@@H](CC2CC2)CN1C(=O)c1cc(-c2ccc(F)cc2F)on1` [Compound 288, (3S,6S)-6-(cyclopropylmethyl)-4-(5-(2,4-difluorophenyl)isoxazole-3-carbonyl)-3-isobutylpiperazin-2-one], the EC90 in the data set on HCV Replicon 1b came to 1.6 µM. This compound also returned a CC90 at 8 days in data set [1] (MTS assay, 8 days incubation) above 10 µM.
On the same counts, the results for `CC(C)C[C@H]1C(=O)N[C@H](C2CCOCC2)CN1C(=O)c1noc(-c2ccc(F)cc2)n1` [Compound 473, (3S,6R)-4-(5-(4-fluorophenyl)-1,2,4-oxadiazole-3-carbonyl)-3-isobutyl-6-(tetrahydro-2H-pyran-4-yl)piperazin-2-one] are above 10 µM and above 10 µM.
`CC(C)C[C@H]1CN(C(=O)C#Cc2ccc(C(F)(F)F)cc2)[C@@H](CC(C)C)C(=O)N1` [Compound 122]: in the data set with HCV Replicon 1b, the EC90 is 7.54 µM. The CC90 at 8 days in data set [1] was above 10 µM.
The corresponding values for `CC(C)C[C@H]1CN(C(=O)c2cc(-c3ccc(OC(F)(F)F)cc3)on2)[C@@H](CC(C)C)C(=O)N1` [Compound 179] are 14.9 µM and above 10 µM.
On the same counts, the results for `CC(C)C[C@H]1CN(Cc2ccc(Cl)c(Cl)c2)[C@@H](CC(C)C)C(=O)N1` [Compound 226, (3S,6S)-4-(3,4-Dichloro-benzyl)-3,6-diisobutyl-piperazin-2-one] are 8.87 µM and above 10 µM.
For the compound `CC(C)C[C@H]1CN(C(=O)[C@H]2C[C@@H]2c2ccc(F)cc2F)[C@@H](CC(C)C)C(=O)N1` [Compound 421, (3S,6S)-4-[(1S,2S)-2-(2,4-Difluoro-phenyl)-cyclopropanecarbonyl]-3,6-diisobutyl-piperazin-2-one], the EC90 in the data set on HCV Replicon 1b was above 10 µM. This compound also had a CC90 at 8 days in data set [1] (MTS assay, 8 days incubation) above 10 µM.
For the compound `CC(C)C[C@H]1CN(C(=O)c2cc(-c3ccc(C(=O)N(C)C)cc3)on2)[C@@H](CC(C)C)C(=O)N1` [Compound 139], the EC90 in the data set with HCV Replicon 1b was above 10 µM. Further, the CC90 at 8 days in data set [1] is above 10 µM.
In the case of `CC(C)C[C@H]1C(=O)N[C@H](c2ccc(Cl)s2)CN1C(=O)c1cc(-c2ccc(F)cc2)on1` [Compound 485, (3S,6S)-6-(5-chlorothiophen-2-yl)-4-(5-(4-fluorophenyl)isoxazole-3-carbonyl)-3-isobutylpiperazin-2-one], the EC90 in the data set with HCV Replicon 1b is above 10 µM. Besides, in data set [1] (MTS assay, 8 days incubation), the CC90 at 8 days was above 10 µM.
With `CCC[C@H]1CN(C(=O)[C@@H]2C[C@H]2c2ccc(Cl)cc2)[C@@H](CC(C)C)C(=O)N1` [Compound 244, (3S,6S)-4-[(1R,2R)-2-(4-Chloro-phenyl)-cyclopropanecarbonyl]-3-isobutyl-6-propyl-piperazin-2-one], the EC90 in the data set with HCV Replicon 1b is 0.07 µM. Moreover, the CC90 at 8 days in data set [1] was above 10 µM.
